From patent publication US20240066115A1, “DETERMINATION AND USES OF CD8+ T CELL EPITOPES” (priority 2021, published 2024)
Where a SMILES comes first, the peptide text is derived from it.

How the values were obtained:
GL261/vIII target cells = assay: Cytotoxic T cell killing assay, T cells from vaccinated mice; details: 50:1 effector to target ratio
GL261/vIII = assay: Intracranial glioma model GL261/vIII, peptide vaccination; assay type: in vivo; details: candidate peptides as individual vaccines
Description: Y6-pepvIII is effective in an intracranial glioma model. Because of its significant effect on survival in the EGFRvIII subcutaneous tumor model, we selected Y6-pepvIII for in-depth analysis. First, we tested this vaccine in a model that more accurately represented human gliomas. We utilized the commonly employed murine glioma 261 (GL261) intracranial tumor model (30) which was transfected with the EGFRvIII cDNA to yield a line with high expression, GL261/vIII. We explored intracranial injection protocols that would lead to reproducible survival curves and identified conditions where 90% of the animals survived 23-29 days. To compare vaccine efficacy, mice received either Montanide (ISA51) alone, 100 ug of KLH with Montanide, 100 ug of KLH conjugated to pepvIII or Y6-pepvIII in Montanide following the vaccination schedule outlined in FIG. 2A. While KLH treatment had no measurable impact on survival, vaccination with the pepvIII induced a modest but statistically significant 23% increase in survival vs. control mice (FIG. 2B; median survival: Control=26.0 days, KLH=27 days, pepvIII=32 days, p<0.0001).
Intracranial model. Six to 8-week old C57BL/6J mice (Jackson Laboratories, Bar Harbor, ME), had gliomas established by stereotactically injecting 10,000 GL261/vIII […] CT2A/vIII cells into the left striatum (2 mm posterior to the coronal suture and 2 mm lateral to the sagittal suture) on day 0 of the experimental process as previously described. Briefly, mice were anesthetized with isoflurane (4%) and placed in the stereotactic frame. An incision was made, and a burr hole was drilled over the striatum. GL261/vIII or CT2A/vIII cells were injected at the above stated coordinates using a Hamilton Microsyringe controlled by an automated micro-pump injection system. Mice were assigned to treatment groups randomly and tumor progression was monitored by bioluminescent signal as detected by the IVIS imaging system (Caliper Life Sciences, Hopkinton, MA).
For survival experiments, each treatment group consisted of 6 to 15 mice. […]

## CC(C)C[C@H](N)C(=O)N[C@@H](CCC(=O)O)C(=O)N[C@@H](CCC(=O)O)C(=O)N[C@@H](CCCCN)C(=O)N[C@@H](CCCCN)C(=O)N[C@@H](Cc1ccc(O)cc1)C(=O)N[C@@H](CC(N)=O)C(=O)N[C@@H](Cc1ccc(O)cc1)C(=O)N[C@H](C(=O)N[C@H](C(=O)N[C@H](C(=O)N[C@@H](CC(=O)O)C(=O)N[C@@H](Cc1c[nH]cn1)C(=O)O)[C@@H](C)O)C(C)C)C(C)C [Y6-pepvIII] (H-LEEKKYNYVVTDH-OH)
GL261/vIII target cells
  cytotoxic capacity of T cells of vaccinated mice: increased cytotoxic capacity
GL261/wt target cells
  cytotoxic activity against GL261/wt target cells: no cytotoxic activity

## CC(C)C[C@H](N)C(=O)N[C@@H](CCC(=O)O)C(=O)N[C@@H](CCC(=O)O)C(=O)N[C@@H](CCCCN)C(=O)N[C@@H](CCCCN)C(=O)NCC(=O)N[C@@H](CC(N)=O)C(=O)N[C@@H](Cc1ccc(O)cc1)C(=O)N[C@H](C(=O)N[C@H](C(=O)N[C@H](C(=O)N[C@@H](CC(=O)O)C(=O)N[C@@H](Cc1c[nH]cn1)C(=O)O)[C@@H](C)O)C(C)C)C(C)C [pepvIII, reference compound]
GL261/wt target cells
  cytotoxic activity against GL261/wt target cells: no cytotoxic activity

## LEEKKNYV
GL261/vIII
  increase in survival relative to KLH treated control mice: 30%

## LEEYVVTDH
GL261/vIII
  increase in survival relative to KLH treated control mice: 54%

## NYVVTDH
GL261/vIII
  increase in survival relative to KLH treated control mice: 18%
